Assay: in vitro
Conditions: human, hela cells, % viability

Row | SMILES | viability at 28.5 h, 10 µM [%]
1 | O=C(O)C(Cc1c[nH]cn1)N1C(=O)C2CC=C(Cl)CC2C1=O (centres unmarked) [CBK286871] | 92.4
2 | Cc1nn(C)cc1CNC(=O)C1C2CCC(C2)C1C(=O)O (centres unmarked) [CBK286875] | 89.3
3 | O=C(O)C1CC(=O)N(Cc2ccccc2)C1c1ccccc1 (centres unmarked) [CBK286876] | 89.1
4 | Cc1cc(C)cc(/N=C2\NC(=O)C(CC(=O)O)S2)c1 (centres unmarked) [CBK286878] | 91.4
5 | O=C(O)CCc1nc2[nH]c(C(F)F)cc(=O)n2n1 [CBK286880] | 98.6
6 | CC(=O)N(Cc1ccccc1)c1ccc(C(=O)O)cc1 [CBK286882] | 102
7 | O=C(O)c1cc2c(s1)CN(C1CCCCC1)C2 [CBK286885] | 96.2
8 | O=C(O)CCCOc1nc(C2CC2)cc(C(F)(F)F)n1 [CBK286886] | 92
9 | Cc1c(C(C)NC(=O)C2C3CCC(O3)C2C(=O)O)cnn1C (centres unmarked) [CBK286887] | 91.4
10 | Cc1c(-c2cc(C(F)F)n3nc(CCC(=O)O)nc3n2)cnn1C [CBK286888] | 85.7
11 | Cc1ccccc1N1CCN(Cc2cccc(C(=O)O)c2)CC1 [CBK286890] | 90.8
12 | O=C(O)C1CCN(Cc2ccc(Cl)cc2)CC1 [CBK286895] | 89.3
13 | CC(C)(C)C(Cn1cccn1)NC(=O)CCC(=O)O (centres unmarked) [CBK286897] | 81.3
14 | O=C(O)CCCC(=O)N(c1ccccc1)c1ccccc1 [CBK286901] | 80.2
15 | COc1ccccc1N1CCN(C(=O)CCCC(=O)O)CC1 [CBK286904] | 80.8
16 | O=C(O)CCC(=O)NN1C(=O)c2ccccc2NC1c1ccc(F)cc1 (centres unmarked) [CBK286905] | 84
17 | N#Cc1ccccc1NC(=O)C(CC(=O)O)NCc1ccccc1 (centres unmarked) [CBK286907] | 83.6
18 | COc1cc(C(N)C(=O)O)ccc1OCc1ccccc1 (centres unmarked) [CBK286909] | 82.6
19 | O=C(O)CC(c1ccncc1)c1c[nH]c2ccccc12 (centres unmarked) [CBK286913] | 90.9
20 | O=C(O)CCn1cc(Br)c([N+](=O)[O-])n1 [CBK286916] | 90
21 | O=C(O)C1C2C=CC(O2)C1C(=O)NCC1CCCO1 (centres unmarked) [CBK286917] | 92.7
22 | O=C(O)CCC(=O)N1CCN(C2CCCCC2)CC1 [CBK286918] | 94.1
23 | CC(C)C(NS(=O)(=O)c1ccc2ccccc2c1)C(=O)O (centres unmarked) [CBK286919] | 96.7
24 | Cc1ccc(-c2ccc(CCC(=O)O)n2CC(=O)O)cc1 [CBK286922] | 94.8

Row | SMILES | viability at 28.5 h, 10 µM [%]
25 | CC1=CC(C)C2C(=O)N(c3ccc(C(=O)O)cc3)C(=O)C2C1 (centres unmarked) [CBK286923] | 87
26 | COc1ccc(-c2csc(Nc3cccc(C(=O)O)c3)n2)cc1 [CBK286924] | 86.7
27 | O=C(O)C1CCCN(C(=O)CCc2c[nH]c3ccccc23)C1 (centres unmarked) [CBK286925] | 88.6
28 | CCCC(C(=O)O)C(C)CC(=O)Nc1ccccc1Cl (centres unmarked) [CBK286927] | 99.1
29 | CCc1c(SCC(=O)O)nc2ccccc2c1C [CBK286928] | 95.8
30 | Cc1ccc(S(=O)(=O)NC2CCC(C(=O)O)CC2)cc1 (centres unmarked) [CBK286929] | 96.4
31 | O=C(O)CCC(=O)NCc1ccc2c(c1)OCO2 [CBK286930] | 91.6
32 | CCOc1ccc(NC(=O)COc2ccccc2/C=C/C(=O)O)cc1 [CBK286935] | 96.6
33 | Cc1ccc(NC(=O)C2CCCCC2C(=O)O)cc1Cl (centres unmarked) [CBK286938] | 99.9
34 | CCCC(=O)Nc1ccc(C(=O)O)cc1NC(=O)CCC [CBK286939] | 92.3
35 | CC(CCc1ccccc1)NC(=O)c1ccccc1C(=O)O (centres unmarked) [CBK286940] | 94.5
36 | NCCCC(C(=O)O)C(=O)c1ccccc1-c1ccccc1 (centres unmarked) [CBK286941] | 99.2
37 | CCN(CC)C(=O)Cc1cc(C(=O)O)c2ccccc2n1 [CBK286942] | 104
38 | O=C(O)C1C2CCC(O2)C1C(=O)N1CCN(Cc2ccc(Cl)cc2)CC1 (centres unmarked) [CBK286943] | 97.5
39 | Cc1ccc(S(=O)(=O)N2CCN(C(=O)C3C4C=CC(C4)C3C(=O)O)CC2)cc1 (centres unmarked) [CBK286944] | 106
40 | O=C(O)CCC1=C2c3ccccc3CCN2C(=O)CC1 [CBK286945] | 108
41 | O=C(O)c1oc2ccccc2c1CN1CCN(c2ccccc2)CC1 [CBK286948] | 115
42 | CC(C)(C)c1ccc(C(=O)N2CCC(C(=O)O)CC2)cc1 [CBK286949] | 108
43 | C/C(=C/C(=O)NCc1ccc(Cl)cc1)C(=O)O [CBK286954] | 105
44 | O=C(O)CCC(=O)N1CCN(S(=O)(=O)c2ccc(F)cc2)CC1 [CBK286956] | 93.2
45 | O=C(O)CCCC(=O)NC12CC3CC(CC(C3)C1)C2 [CBK286958] | 97.4
46 | O=C(O)/C=C/C(=O)NN1C(=O)c2ccccc2C1=O [CBK286962] | 86.9
47 | O=C(O)c1c[nH]nc1-c1cccc(Br)c1 [CBK286963] | 91.1
48 | O=C(O)C1Cc2nc[nH]c2C(c2ccc(F)cc2)N1 (centres unmarked) [CBK286970] | 86.1

Row | SMILES | viability at 28.5 h, 10 µM [%]
49 | O=C(O)CCCC(=O)N1CCN(C(=O)c2sc3cc(Cl)ccc3c2Cl)CC1 [CBK286973] | 91
50 | Cc1nc2ccc(C(=O)O)cc2c2c1CC(CN)O2 (centres unmarked) [CBK286974] | 97.7
51 | O=C(Cc1ccccc1)NC(Cc1ccc(Cl)cc1)C(=O)O (centres unmarked) [CBK286976] | 92.7
52 | Cc1ccc(N(CC(=O)O)S(C)(=O)=O)cc1C [CBK286978] | 87.1
53 | N#Cc1ccc(NC(=O)CC2(CC(=O)O)CCCC2)cc1 [CBK286979] | 89.5
54 | O=C(NCc1ccc(C(=O)O)cc1)NC1CCCCC1 [CBK286980] | 84.5
55 | O=C(O)c1oc2ccccc2c1CSc1ccccn1 [CBK286981] | 89.5
56 | O=C(O)C1C2C=CC(O2)C1C(=O)NCCCc1ccccc1 (centres unmarked) [CBK286982] | 93.3
57 | O=C(O)CC(c1ccccc1)c1ccc2c(c1)OCO2 (centres unmarked) [CBK286983] | 87.8
58 | O=C(O)CC(Cc1ccc(Cl)cc1)C(=O)NCc1ccccc1 (centres unmarked) [CBK286984] | 89.4
59 | Cc1ccc(S(=O)(=O)NC(C(=O)O)c2ccccc2)cc1 (centres unmarked) [CBK286985] | 106
60 | Cc1ccc(-n2nc(C(=O)O)c(C)c(C#N)c2=O)cc1C [CBK286987] | 93.3
61 | CS(=O)(=O)N(CC(=O)O)c1cccc(C(F)(F)F)c1 [CBK286988] | 87.8
62 | COc1ccc(-c2cc(C(=O)O)nn2C2CCS(=O)(=O)C2)cc1 (centres unmarked) [CBK286990] | 87.8
63 | O=C(O)CCSCC(=O)c1ccc(OC(F)F)cc1 [CBK286991] | 84.6
64 | CCc1nnc(SCc2cccc(C(=O)O)c2)o1 [CBK286993] | 95.7
65 | O=C(O)C1CSC(c2ccc(-c3cccc(Cl)c3)o2)N1 (centres unmarked) [CBK286997] | 97.5
66 | Cc1cc2n(n1)C(c1ccc(C(=O)O)cc1)Nc1ccccc1-2 (centres unmarked) [CBK287000] | 80.8
67 | CC(C)(C)N1C(=O)c2ccc(C(=O)Nc3ccccc3C(=O)O)cc2C1=O [CBK287004] | 112
68 | O=C(O)c1ccccc1N1C(=O)C2CC=C(Cl)CC2C1=O (centres unmarked) [CBK287007] | 94.4
69 | O=C(O)c1ccc2c(c1)C1C=CCC1C(c1cccc([N+](=O)[O-])c1)N2 (centres unmarked) [CBK287008] | 94.7
70 | O=C(N[C@@H](Cc1ccc(O)cc1)C(=O)O)OCc1ccccc1 [CBK287012] | 94.8
71 | CC(C)(C)c1ccc(OCC(=O)Nc2ccc(OCC(=O)O)cc2)cc1 [CBK287013] | 113
72 | Cn1cc(NC(=O)c2ccc(COc3c(F)c(F)cc(F)c3F)o2)c(C(=O)O)n1 [CBK287014] | 98.5

Row | SMILES | viability at 28.5 h, 10 µM [%]
73 | O=C(O)CCC(=O)Nc1ccccc1Sc1ccc(Cl)cc1 [CBK287015] | 99.4
74 | COc1cc(S(=O)(=O)Nc2ccc(CC(=O)O)cc2)ccc1Cl [CBK287019] | 107
75 | CC(=O)Nc1ccc(N2CC34C=CC(O3)C(C(=O)O)C4C2=O)cc1 (centres unmarked) [CBK287020] | 100
76 | COc1ccc(C(=O)Nc2ccccc2C(=O)NCCCC(=O)O)cc1 [CBK287024] | 111
77 | Cc1ccc(NC(=O)COc2ccccc2/C=C/C(=O)O)cc1C [CBK287026] | 111
78 | Cc1ccccc1OCC(=O)Nc1ccc(C(=O)O)c(Cl)c1 [CBK287027] | 83.6
79 | COc1ccc(C(=O)O)cc1CN1CCOCC1 [CBK287029] | 102
80 | COc1cc(C(=O)O)ccc1Oc1cnn(-c2ccccc2)c(=O)c1Cl [CBK287032] | 94.9
81 | CC(=O)c1c(C(C)=O)c(C)n(-c2ccc(C(=O)O)cc2)c1C [CBK287036] | 90.9
82 | O=C(O)c1ccc(OCCN2CCOCC2)cc1 [CBK287038] | 94.5
83 | CCC(C(=O)O)N1C(=O)NC2C1N(C)C(=O)N2C (centres unmarked) [CBK287039] | 79.9
84 | O=C(CN1C(=O)c2ccccc2C1=O)Nc1cccc(C(=O)O)c1 [CBK287040] | 110
85 | O=C(CCCN1C(=O)c2ccccc2C1=O)Nc1ccc(C(=O)O)cc1 [CBK287043] | 94.2
86 | COc1cc(CNc2ccccc2Cl)ccc1OCC(=O)O [CBK287045] | 89.7
87 | O=C(Cc1ccccc1)Nc1ccc(C(=O)O)cc1NC(=O)Cc1ccccc1 [CBK287049] | 108
88 | Cc1c(-c2ccc(OCC(N)=O)cc2)nc2ccc(Br)cc2c1C(=O)O [CBK287050] | 93.1
89 | Cc1nn(Cc2ccc(Cl)cc2)c(C)c1NC(=O)CCC(=O)O [CBK287051] | 88.5
90 | NC(CC(=O)O)c1ccc(OCCc2ccccc2)cc1 (centres unmarked) [CBK287053] | 91.6
91 | O=C(O)CCc1ccc(S(=O)(=O)NCc2ccccc2)cc1 [CBK287054] | 79.8
92 | O=C(O)CCCn1cc(NC(=O)CCc2ccccc2)cn1 [CBK287055] | 86.4
93 | O=C(O)C(Cc1c[nH]c2ccccc12)N1Cc2ccccc2C1=O (centres unmarked) [CBK287056] | 82
94 | O=C(NC1CCCCC1)c1cc(NC(=O)c2ccccc2C(=O)O)ccc1Cl [CBK287062] | 96.3
95 | COc1ccc(-c2nc3ccccn3c2CN2CCC(C(=O)O)CC2)cc1OC [CBK287063] | 89.9
